From article PMC8778187, “A New Oxygen Containing Pyclen-Type Ligand as a Manganese(II) Binder for MRI and ^52Mn PET Applications: Equilibrium, Kinetic, Relaxometric, Structural and Radiochemical Studies” (Molecules, 2022)

Assay: 17O NMR and NMRD measurements (water exchange, rotation, hydration number)
Assay type: physicochemical
Protocol: The relaxivity of paramagnetic metal complexes is governed by several parameters, including the water exchange rate (kex), the rotational correlation time (τR), and the number of inner sphere water molecules (q). In order to obtain information for these parameters, temperature dependent ^17O NMR measurements (9.4 T) and nuclear magnetic relaxation dispersion (NMRD) experiments were carried out in the frequency range of 0.01–80 MHz, at 3 different temperatures (25, 37, and 50 °C). Since numerous physico-chemical parameters determine the relaxivity, the independent assessment of some of the parameters is essential for the correct characterization. The variable temperature ^17O NMR measurements can deliver information about kex and τR via the transverse (1/T2) and the longitudinal (1/T1) ^17O relaxation rates, respectively, while the ^17O chemical shifts (Δω) depend on q. Therefore, the transverse and longitudinal relaxation rates and chemical shifts for a [Mn(3,9-OPC2A)] complex and a diamagnetic reference sample (HClO4, pH = 3.3) have been determined in the aqueous solution.
The ^17O 1/T2r values and the NMRD data have been analyzed simultaneously by the Swift–Connick equations [31], as well as by the Solomon–Bloembergen–Morgan (SMB) and Freed models (see Supporting Information). In this calculation, the water exchange rate, kex^298; its activation enthalpy and entropy, ΔH^‡ and ΔS^‡; the rotational correlational time, τR; its activation energy, ER; the square of the zero-field splitting energy (ZFS), Δ^2; and the correlation time of its modulation, τv, have been determined and listed in Table 5, together with corresponding values of other complexes for comparison. As a result of the high number of parameters involved in the calculations, some have to be set to reasonable estimates based on literature data. Thus, the scalar coupling constant, A/ħO, is set to 33 × 10^6 rad s^−1, the distance between the metal ion, and the inner and outer sphere water protons are fixed to rMnH = 2.83 Å and aMnH = 3.6 Å, respectively; the diffusion coefficient and its activation energy are fixed to DMnH = 23 × 10^−10 m^2s^−1 and EMnH = 18 kJmol^−1, and the activation energy of the modulation of the zero-field-splitting, Ev to 1.0 kJmol^−1.
The hydration number has been fixed to q = 1, based on the relaxivity value measured at 20 MHz (r1 = 3.09 mM^−1s^−1), and on the value, 0.97 ± 0.2, determined for q using the method proposed by Gale et al..
A Bruker Avance 400 (9.4 T) spectrometer was used to measure the longitudinal (1/T1) and transverse (1/T2) relaxation rates, and the chemical shifts of an aqueous solution of the [Mn(3,9-OPC2A)] complex (pH = 7.4, 1.3 mM) and a diamagnetic reference (HClO4 acidified water, pH = 3.3) in the temperature range of 273–348 K. The temperature calibration was performed using literature protocols relying on ethylene glycol and methanol standards. The 1/T1 and 1/T2 values were determined by the inversion−recovery and the Carr−Purcell−Meiboom−Gill spin echo technique, respectively. To avoid susceptibility corrections of the chemical shifts, a glass sphere fitted into a 10 mm NMR tube was used to contain the samples. ^17O enriched water (10% H2^17O, CortecNet) was added to the solutions to improve sensitivity (circa 1% enrichment). Proton NMRD profiles of the [Mn(3,9-OPC2A)] complex (1.00 mM, pH = 7.4) were recorded in aqueous solution on a Stelar SMARTracer Fast Field Cycling relaxometer (0.01−10 MHz), and a Bruker WP80 NMR electromagnet adapted to variable field measurements (20−80 MHz) and controlled by a SMARTracer PC-NMR console (Stelar s.r.l., Mede, Italy). The temperature was monitored by a VTC91 temperature control unit and maintained by a gas flow. The temperature was determined by previous calibration with a Pt resistance temperature probe. […]

In the case of `O=C([O-])CN1CCOCCN(CC(=O)[O-])Cc2cccc(n2)C1.[Mn+2]` [[Mn(3,9-OPC2A)]], the “r1^298_20 MHz” value (20 MHz, 298 K) is reported as 3.09 mM⁻¹ s⁻¹, the ER (activation energy of rotation) is reported as 14.8 ± 0.6 kJmol^−1 and the “ΔH^‡” value (activation enthalpy of water exchange) is reported as 28.5 ± 1.7 kJmol^−1. The “ΔS^‡” value (activation entropy of water exchange) was −1.9 ± 0.8 JK^−1mol^−1, the “τv^298” value (correlation time of ZFS modulation) was 19.3 ± 3.0 ps and the “q (method proposed by Gale et al.)” value (hydration number from 17O NMR line widths) was 0.97 ± 0.2. For the same molecule, the q (hydration number, fixed during the fitting procedure) was 1, the “τR^298” value (rotational correlation time) was 40.0 ± 1.1 ps and the “Δ^2” value (square of the zero-field splitting energy) was 17.8 ± 3.6 10^18s^−2. For the same molecule, the “kex^298” value (water exchange rate with bulk solvent) was 5.3 ± 0.4 × 10^7 s^−1 and the “kex^298” value (water exchange rate, fit of 17O NMR and NMRD data) was 5.3 ± 0.4 10^7s^−1.
